Tests used:
[1] = cited from earlier work
[2] = tested on: AHR; assay: AHR activation in human ileal explant culture (Cyp1a1 qRT-PCR); type: cell-based; conditions: 200 μM I3C or 20 μM A18, 15 minutes pre-treatment then 6 hours
Excerpt: De-identified human ileal samples were collected via waiver of consent from the Office of Human Subjects Research Review Boards at Johns Hopkins University (IRB00094036), during surgery for NEC or at the time of stoma closure. For RNA isolation and qRT-PCR analysis, fresh samples were snapfrozen in liquid nitrogen immediately. For human explant culture, fresh ileum samples from NEC patients or patient undergoing stoma re-anastomosis were washed with sterile phosphate-buffered saline containing gentamycin (5 μg/mL), minced into 2- to 4-mm diameter pieces, and then cultured in Dulbecco's modified Eagle growth medium supplemented with 10% fetal bovine serum, 4 μg/mL human recombinant insulin and 100 μg/mL Primocin. […]
Total RNA was isolated using the RNeasy mini kit (Qiagen) and complementary DNA was synthesized from 0.5 μg RNA using QuantiTect Reverse Transcription kit (Qiagen) following the manufacturer's protocols. The mRNA quantification was performed on the Bio-Rad CFX96 Real-Time System (Bio-Rad) using iTaq™ universal SYBR® Green supermix (Bio-Rad) and the primers listed in Table 1. […] For microRNA isolation, freshly harvested, snap-frozen ileal tissue was subjected to total RNA isolation using the RNeasy plus universal mini kit (Qiagen) and miRNA was quantified using miScript PCR starter kit (Qiagen) following the manufacturer's protocols. […]

[3] = tested on: mouse NEC model; assay: Experimental NEC in newborn mice (Example 1); type: in vivo
[4] = tested on: AHR; assay: AHR activation in IEC-6 enterocytes (Cyp1a1 expression); type: cell-based, rat; conditions: A18, 6 hours
Experimental: The intestinal epithelial cells line IEC-6 (ATCC CRL-1592) was stably transduced with lentiviral particles containing Cignal Lenti XRE Reporter (luc) (Qiagen). Cells were treated serially with individual chemicals contained within the Johns Hopkins Drug Library (JHDL), which contains a series of FDA-approved drugs, Chong et al., 2006, (kindly provided by Dr. Jun O. Liu, Johns Hopkins University) at 10 μM for 24 hours, and the luciferase activity was quantified using the SpectraMax M3 (Molecular Devices).
(§1) Total RNA was isolated using the RNeasy mini kit (Qiagen) and complementary DNA was synthesized from 0.5 μg RNA using QuantiTect Reverse Transcription kit (Qiagen) following the manufacturer's protocols. The mRNA quantification was performed on the Bio-Rad CFX96 Real-Time System (Bio-Rad) using iTaq™ universal SYBR® Green supermix (Bio-Rad) and the primers listed in Table 1. The relative mRNA expression levels were normalized against the expression of the housekeeping gene ribosomal protein lateral stalk subunit P0 (Rplp0). For microRNA isolation, freshly harvested, snap-frozen ileal tissue was subjected to total RNA isolation using the RNeasy plus universal mini kit (Qiagen) and miRNA was quantified using miScript PCR starter kit (Qiagen) following the manufacturer's protocols. The relative miRNA expression levels were normalized against the expression of housekeeping miRNA miR-191.

[5] = tested on: TLR4; assay: TLR4 signaling and Tlr4 expression in newborn mouse ileum in vivo (endotoxemia model, LPS)
Experimental: Endotoxemia was induced in neonatal mouse pups (p11) by administering 5 mg/kg lipopolysaccharides (LPS) via intraperitoneal injection, and ileal samples were harvested 6 hours after LPS treatments. […] I3C and A18 were administered to the pregnant mother daily until the offspring were studied further for experimental NEC or endotoxemia as above. […] The mRNA quantification was performed on the Bio-Rad CFX96 Real-Time System (Bio-Rad) using iTaqTM universal SYBR® Green supermix (Bio-Rad) and the primers listed in Table 1. The relative mRNA expression levels were normalized against the expression of the housekeeping gene ribosomal protein lateral stalk subunit P0 (Rplp0). For microRNA isolation, freshly harvested, snap-frozen ileal tissue was subjected to total RNA isolation using the RNeasy plus universal mini kit (Qiagen) and miRNA was quantified using miScript PCR starter kit (Qiagen) following the manufacturer's protocols. The relative miRNA expression levels were normalized against the expression of housekeeping miRNA miR-191.

[6] = tested on: AHR; assay: AHR activation in mouse intestine in vivo (Cyp1a1 expression by qRT-PCR); conditions: for Cyp1a1 expression in the intestinal epithelium: fed I3C 25 mg/kg/day or A18 300 mg/kg/day
Experimental: Hits were validated for activation of AHR signaling by oral gavage into neonatal C57/B16 mice (p11), and measuring the expression of the AHR activation reporter Cyp1a1 by qRT-PCR in the intestinal mucosa 24 hours later. The lead compound from these studies is herein labelled “A18”. Additionally, the mice were subjected to hypoxia (5% 02-95% N2) for 10 min in a hypoxia chamber (Billups-Rothenberg) twice daily for 4 days. […] To test the protective effect of breast milk on AHR signaling a NEC, human breast milk (Innovative Research) was supplemented to the formula at the final concentration of 5%. Endotoxemia was induced in neonatal mouse pups (p11) by administering 5 mg/kg lipopolysaccharides (LPS) via intraperitoneal injection, and ileal samples were harvested 6 hours after LPS treatments. […] I3C and A18 were administered to the pregnant mother daily until the offspring were studied further for experimental NEC or endotoxemia as above. […] The mRNA quantification was performed on the Bio-Rad CFX96 Real-Time System (Bio-Rad) using iTaqTM universal SYBR® Green supermix (Bio-Rad) and the primers listed in Table 1. The relative mRNA expression levels were normalized against the expression of the housekeeping gene ribosomal protein lateral stalk subunit P0 (Rplp0). For microRNA isolation, freshly harvested, snap-frozen ileal tissue was subjected to total RNA isolation using the RNeasy plus universal mini kit (Qiagen) and miRNA was quantified using miScript PCR starter kit (Qiagen) following the manufacturer's protocols. The relative miRNA expression levels were normalized against the expression of housekeeping miRNA miR-191.

[7] = tested on: TLR4; assay: TLR4 signaling and expression in human ileal explant culture (LPS); type: cell-based
Excerpt: De-identified human ileal samples were collected via waiver of consent from the Office of Human Subjects Research Review Boards at Johns Hopkins University (IRB00094036), during surgery for NEC or at the time of stoma closure. For RNA isolation and qRT-PCR analysis, fresh samples were snapfrozen in liquid nitrogen immediately. For human explant culture, fresh ileum samples from NEC patients or patient undergoing stoma re-anastomosis were washed with sterile phosphate-buffered saline containing gentamycin (5 μg/mL), minced into 2- to 4-mm diameter pieces, and then cultured in Dulbecco's modified Eagle growth medium supplemented with 10% fetal bovine serum, 4 μg/mL human recombinant insulin and 100 μg/mL Primocin. Human ilea explant cultures were then pre-treated with 200 μM I3C or 20 μM A18 for 15 minutes, and then with 50 μg/mL LPS for 6 hours, then processed for total RNA isolation followed by qRT-PCR.
as §1

[8] = A18 administered during pregnancy
[9] = wild-type newborn mice, A18 300 mg/kg body weight/day for 4 days, oral

Question: For `Cc1c(OCC(F)(F)F)ccnc1C[S+]([O-])c1nc2ccccc2[nH]1` (centres unmarked) [A18, Lansoprazole], which “bound in human plasma” value ([1]; human plasma) is on record?
Answer: approximately 97%

Question: And the plasma elimination half-life ([1]; in humans)?
Answer: approximately 2 h

Question: What about the absorption ([1]; in vivo) of the same molecule?
Answer: rapidly absorbed

Question: What about the “metabolism by CYP3A4 and CYP2C18” value ([1]; in vivo) of the same molecule?
Answer: extensively metabolized

Question: What about the “Cyp1a1 expression in human intestinal explant cultures” value [2] of the same molecule?
Answer: significantly induced Cyp1a1 expression

Question: And the “Tlr4 expression in the neonatal gut (NEC)” value [3, 8]?
Answer: reduced

Question: And the “Tnf-a expression in the neonatal gut (NEC)” value [3, 8]?
Answer: reduced Tnf-a

Question: And the “histology and NEC severity” value [3, 8]?
Answer: improved histology and NEC severity

Question: What about the “NEC severity in the offspring” value ([3]; A18 administered during pregnancy (M-A18, 300 mg/kg body weight/day)) of the same molecule?
Answer: significantly reduced NEC severity

Question: What about the “prevention and treatment of NEC in mouse models” value ([3]; summary statement) of the same molecule?
Answer: effectively prevented and treated NEC

Question: And the NEC severity ([3]; wild-type mice, oral to pups during NEC induction: I3C 25 mg/kg/day, A18 300 mg/kg/day, or human breast milk 5% in formula)?
Answer: significantly reduced NEC severity

Question: And the NEC severity score [3, 9]?
Answer: improved NEC severity score

Question: And the “expression of I16 (NEC)” value [3, 9]?
Answer: reduced expression of I16

Question: What about the “histology of the terminal ileum (NEC)” value [3, 9] of the same molecule?
Answer: improved histology

Question: And the “Cyp1a1 expression in IEC-6 enterocytes” value [4]?
Answer: induced the expression of Cyp1a1

Question: What about the “Tlr4 expression in the intestinal mucosa / newborn ileum” value ([5]; wild-type mice, fed I3C or A18) of the same molecule?
Answer: reduced Tlr4 expression

Question: And the “TLR4 (LPS)-induced 116 expression in the intestine” value ([5]; wild-type newborn mice, fed A18 (300 mg/kg/day) or oral breast milk)?
Answer: significantly reduced TLR4-induced 116 expression

Question: And the “Cyp1a1 expression in the offspring pup intestine” value ([6]; A18 administered during pregnancy, 300 mg/kg body weight/day)?
Answer: induced the expression of Cyp1a1

Question: What about the “Cyp1a1 expression in the intestinal epithelium” value ([6]; Ahr^−/− newborn mice) of the same molecule?
Answer: not

Question: And the “Cyp1a1 expression in the intestinal epithelium” value ([6]; wild-type newborn (p11) mice)?
Answer: induced the expression of Cyp1a1

Question: What about the “Tlr4 expression in human intestine ex vivo” value ([7]; 20 μM A18, LPS 50 μg/mL for 6 hours) of the same molecule?
Answer: significantly reduced

Question: What about the “LPS-induced Tnf-a expression in human intestinal explant cultures” value ([7]; 200 μM I3C or 20 μM A18, LPS 50 μg/mL for 6 hours) of the same molecule?
Answer: significantly reduced LPS-induced Tnf-a expression

Question: And the “inflammation in the intestine of human resected at the time of surgery for NEC” value ([7]; summary statement)?
Answer: dampened inflammation

From patent US20230357261A1, “ARYL HYDROCARBON RECEPTOR LIGANDS AND THEIR ANALOGUES FOR THE PREVENTION AND TREATMENT OF INFLAMMATORY DISORDERS” (The Johns Hopkins University, priority 2020, published 2023)
